Results published in US10420844B2, “Peptide pharmaceuticals” (Mederis Diabetes LLC, priority 2011, dated 2019).
Entries after “also recorded” stand apart in the source; their conditions may differ. Non-standard residues stand in square brackets, D forms with d. Residues, ends and D or L forms follow the SMILES beside them. *: point of attachment. GlcA(β-D,1-O-dodecyl) = CCCCCCCCCCCCO[C@@H]1O[C@H](C(=O)*)[C@@H](O)[C@H](O)[C@H]1O; GlcA(β1-O-octyl) = CCCCCCCCO[C@@H]1O[C@H](C(=O)*)[C@@H](O)[C@H](O)[C@H]1O; βGlcA(1-OMe) = CO[C@@H]1O[C@H](C(=O)*)[C@@H](O)[C@H](O)[C@H]1O; Phe(2,4,6-Me3) = Cc1cc(C)c(C[C@H](N)C(=O)O)c(C)c1; Dmt = Cc1cc(O)cc(C)c1C[C@H](N)C(=O)O; hArg = N=C(N)NCCCC[C@H](N)C(=O)O; Tic = O=C(O)[C@@H]1Cc2ccccc2CN1; Nle = CCCC[C@H](N)C(=O)O; Ac5c = NC1(C(=O)O)CCCC1; Aib = CC(C)(N)C(=O)O; NHBn = c1ccc(CN*)cc1

How the values were obtained:
[1] = in water; cited from earlier work
[2] = blood PO4 and Ca levels in rats after a single sc injection; assay type: in vivo, rat; conditions: for blood calcium levels versus control (saline/vehicle): 80 (PTH, EU-232) or 320 (EU-232), all time points; for blood PO4 levels, 80 mcg groups: PO4 did not further diminish after 1 hour
Excerpt: Following the method of Frolik, C.

[3] = biological target: T1, PTH1 (PTHR1), SaOS2 cells (Homo sapiens, UniProt Q03431); assay: PTH1 cellular assay, cAMP generated in SaOS2 cells, Cerep; assay type: cell-based
T1 construct: host or cells: SaOS2 cells (as named in the result head)
T1 sequence (Q03431 27-593): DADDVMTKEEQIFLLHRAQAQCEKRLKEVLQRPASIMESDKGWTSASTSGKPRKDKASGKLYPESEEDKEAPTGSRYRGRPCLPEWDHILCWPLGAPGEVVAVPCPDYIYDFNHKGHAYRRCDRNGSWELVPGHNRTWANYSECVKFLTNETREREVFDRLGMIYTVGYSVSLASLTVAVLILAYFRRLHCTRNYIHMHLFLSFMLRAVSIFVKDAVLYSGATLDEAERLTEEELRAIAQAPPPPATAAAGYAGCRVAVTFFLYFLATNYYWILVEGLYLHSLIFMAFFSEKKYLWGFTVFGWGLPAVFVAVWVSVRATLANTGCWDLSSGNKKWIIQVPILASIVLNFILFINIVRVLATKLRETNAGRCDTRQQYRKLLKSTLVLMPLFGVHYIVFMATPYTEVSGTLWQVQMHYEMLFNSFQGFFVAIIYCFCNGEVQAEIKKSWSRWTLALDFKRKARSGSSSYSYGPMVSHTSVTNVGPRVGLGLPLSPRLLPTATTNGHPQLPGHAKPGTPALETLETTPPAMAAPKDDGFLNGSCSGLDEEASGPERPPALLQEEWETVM
Protocol: Compounds were weighed precisely in an amount of approximately 1 mg and assayed in standard cellular assays (cerep SA). The readout is the amount of cAMP generated in the cells treated with the test compounds, in either agonist or antagonist mode.
Compounds were dissolved in water and diluted in assay buffer containing 1% bovine serum albumin.

mu opioid receptor = biological target: T2, mu opioid receptor (Homo sapiens, UniProt P35372); assay: mu opioid receptor cellular assay (MOP, agonist and antagonist mode), cAMP readout, Cerep; assay type: cell-based
T2 construct: Cerep SA (contract research organization)
Protocol: Compounds were weighed precisely in an amount of approximately 2 mg and assayed in standard cellular assays by the contract research organization Cerep, Inc. (Pullman, Wash.) as executed at their subsidiary, Cerep SA (Le Bois l'Eveque, France). The readout is the amount of cAMP generated in the cells treated with the test compounds, in either agonist or antagonist mode. The assays used were the mu opioid receptor cellular assay (MOP in agonist and antagonist mode), the delta2 opioid receptor cellular assay (DOP in agonist and antagonist mode) and the kappa opioid receptor cellular assay (KOP in agonist and antagonist mode). The assays used are described in Wang, J. B., et al. (1994) FEBS Lett 338: 217-222, Law, P. Y. and Loh, H. H. (1993) Mol Pharmacol 43: 684-693, and Avidor-Reiss, T., et al. (1995) FEBS Lett 361: 70-74. The stimulant for the cells in the DOR antagonist assay was 3×10E-8M DPDPE, a well-accepted DOR literature standard.

[4] = MOP agonist mode and DOP antagonist mode

T2 sequence (P35372 whole entry): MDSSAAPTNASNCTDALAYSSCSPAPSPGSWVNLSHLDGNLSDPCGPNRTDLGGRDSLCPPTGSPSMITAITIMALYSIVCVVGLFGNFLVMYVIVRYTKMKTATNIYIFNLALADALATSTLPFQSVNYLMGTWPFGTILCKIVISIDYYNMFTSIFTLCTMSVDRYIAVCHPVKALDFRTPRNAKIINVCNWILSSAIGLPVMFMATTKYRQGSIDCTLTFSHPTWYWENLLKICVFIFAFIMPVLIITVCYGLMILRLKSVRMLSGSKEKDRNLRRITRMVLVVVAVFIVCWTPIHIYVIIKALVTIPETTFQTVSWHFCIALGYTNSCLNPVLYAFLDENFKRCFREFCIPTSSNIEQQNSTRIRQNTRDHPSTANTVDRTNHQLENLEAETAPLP

| Compound | CMC [1] [mM] | Characterization (mu opioid receptor; [4]) | also measured |
| --- | --- | --- | --- |
| CCCCCCCCCCCCCCO[C@@H]1O[C@H](CO)[C@@H](O[C@@H]2O[C@@H](CO)[C@H](O)[C@@H](O)[C@@H]2O)[C@H](O)[C@H]1O (stereo in doubt) [Tetradecyl maltoside] | 0.01 | – | – |
| CCCCCCCCCCCCCO[C@@H]1O[C@H](CO)[C@@H](OC2OC(CO)C(O)C(O)C2O)[C@H](O)[C@H]1O (stereo in doubt) [Tridecyl maltoside] | 0.03 | – | – |
| CCCCCCCCCCO[C@@H]1O[C@H](CO)[C@@H](O[C@H]2O[C@H](CO)[C@@H](O)[C@H](O)[C@H]2O)[C@H](O)[C@H]1O [Decyl maltoside] | 1.8 | – | – |
| CCCCCCCCCCCCO[C@@H]1O[C@H](CO)[C@@H](O[C@H]2O[C@H](CO)[C@@H](O)[C@H](O)[C@H]2O)[C@H](O)[C@H]1O [Dodecyl-β-D-maltoside] | 0.17 | – | – |
| CCCCCCCCCCCCO[C@@H]1O[C@H](C(=O)NCCCC[C@H](NC(=O)C(C)(C)NC(=O)[C@H](CCC(N)=O)NC(=O)[C@@H](NC(=O)[C@H](Cc2c[nH]c3ccccc23)NC(=O)[C@H](CCCNC(=N)N)NC(=O)[C@H](C)NC(=O)[C@H](CCCCNC(=N)N)NC(=O)[C@H](CCC(N)=O)NC(=O)[C@H](Cc2c[nH]cn2)NC(=O)[C@H](CCCC)NC(=O)[C@H](CC(C)C)NC(=O)[C@H](CCC(N)=O)NC(=O)[C@@H](NC(=O)[C@H](CCC(=O)O)NC(=O)C(C)(C)NC(=O)[C@@H](NC(=O)C2(N)CCCC2)C(C)C)[C@@H](C)CC)[C@@H](C)CC)C(=O)NC(C)(C)C(N)=O)[C@@H](O)[C@H](O)[C@H]1O [EU-232] (H-[Ac5c]V[Aib]EIQL[Nle]HQ[hArg]ARWIQ[Aib]K(GlcA(β-D,1-O-dodecyl))[Aib]-NH2) | – | – | time of maximal statistically significant effect on blood phosphate ([2]; rat serum, sc dosing, last time point of the assay (FIG. 6)): 5 h; blood calcium levels versus control (saline/vehicle) ([2]; rat, sc): No groups were statistically significantly different from control; blood calcium at maximally effective dose and time point ([2]; rat, sc, G4 320, at 5 hrs): no elevation; blood PO4 levels, 80 mcg groups ([2]; rat, single sc injection): transient but not statistically significant decrease; maximal decrease of blood PO4 from time 0 hr. level ([2]; rat, single sc injection, seen at the 5 hr. time point, statistically significant): 25-35%; Characterization [3]: agonist; character of the cellular cAMP response [3]: super-agonistic response; also recorded: super-agonistic activity |
| CO[C@@H]1O[C@H](C(=O)NCCCC[C@H](NC(=O)[C@H](Cc2c(C)cc(C)cc2C)NC(=O)[C@@H]2CCCN2C(=O)[C@@H](N)Cc2c(C)cc(O)cc2C)C(N)=O)[C@@H](O)[C@H](O)[C@H]1O [EU-A101, Dmt-Pro-Tmp-Lys(C1-glucuronyl)-NH2] (H-[Dmt]P[Phe(2,4,6-Me3)]K(βGlcA(1-OMe))-NH2; N-terminus assumed) | – | – | Characterization (mu opioid receptor; MOP agonist/antagonist modes): pure agonist |
| CCCCCCCCO[C@@H]1O[C@H](C(=O)NCCCC[C@H](NC(=O)[C@H](Cc2c(C)cc(C)cc2C)NC(=O)[C@@H]2CCCN2C(=O)[C@@H](N)Cc2c(C)cc(O)cc2C)C(N)=O)[C@@H](O)[C@H](O)[C@H]1O [EU-A102, 2′,6′-dimethyl-L-tyrosyl-prolyl-2′,4′,6′-trimethyl-L-phenylalanyl-Nε-(1′-octyl β-D-glucuronyl)-L-lysine amide] (H-[Dmt]P[Phe(2,4,6-Me3)]K(GlcA(β1-O-octyl))-NH2) | – | – | Characterization (mu opioid receptor; MOP agonist/antagonist modes): partial agonist |
| CCCCCCCCCCCCO[C@@H]1O[C@H](C(=O)NCCCC[C@H](NC(=O)[C@H](Cc2c(C)cc(C)cc2C)NC(=O)[C@@H]2CCCN2C(=O)[C@@H](N)Cc2c(C)cc(O)cc2C)C(N)=O)[C@@H](O)[C@H](O)[C@H]1O [EU-A103, Dmt-Pro-Tmp-Lys(C12-glucuronyl)-NH2] (H-[Dmt]P[Phe(2,4,6-Me3)]K(GlcA(β-D,1-O-dodecyl))-NH2; N-terminus assumed) | – | – | Characterization (mu opioid receptor; MOP agonist/antagonist modes): pure antagonist |
| CO[C@@H]1O[C@H](C(=O)NCCCC[C@@H](NC(=O)[C@@H](N)Cc2c(C)cc(O)cc2C)C(=O)N[C@@H](Cc2c(C)cc(C)cc2C)C(=O)N[C@@H](Cc2ccccc2)C(N)=O)[C@@H](O)[C@H](O)[C@H]1O [EU-A107, Dmt-D-Lys(C1-glucuronyl)-Tmp-Phe-NH2] (H-[Dmt][dK](βGlcA(1-OMe))[Phe(2,4,6-Me3)]F-NH2; N-terminus assumed) | – | – | Characterization (mu opioid receptor; MOP agonist/antagonist modes): Agonist |
| CCCCCCCCO[C@@H]1O[C@H](C(=O)NCCCC[C@H](NC(=O)[C@H](Cc2ccccc2)NC(=O)[C@@H]2Cc3ccccc3CN2C(=O)[C@@H](N)Cc2c(C)cc(O)cc2C)C(N)=O)[C@@H](O)[C@H](O)[C@H]1O [EU-A180, Dmt-Tic-Phe-Lys(C8-glucuronyl)-NH2] (H-[Dmt][Tic]FK(GlcA(β1-O-octyl))-NH2) | – | Pure MOP Ag; pure DOP antag | – |
| CO[C@@H]1O[C@H](C(=O)NCCCC[C@H](NC(=O)[C@H](Cc2ccccc2)NC(=O)[C@H](Cc2ccccc2)NC(=O)[C@@H]2Cc3ccccc3CN2C(=O)[C@@H](N)Cc2c(C)cc(O)cc2C)C(N)=O)[C@@H](O)[C@H](O)[C@H]1O [EU-A189, 2′,6′-dimethyl-L-tyrosyl-L-1,2,3,4-tetrahydroisoquinoline-3-carbonyl-L-phenylalanyl-L-phenylalanys-Nε-(1′-methyl β-D-glucuronyl)-L-lysyl-amide] | – | Pure MOP Ag; pure DOP antag | – |
| CO[C@@H]1O[C@H](C(=O)NCCCC[C@H](NC(=O)[C@H](Cc2ccccc2)NC(=O)[C@@H]2Cc3ccccc3CN2C(=O)[C@@H](N)Cc2c(C)cc(O)cc2C)C(=O)NC(C)(C)C(N)=O)[C@@H](O)[C@H](O)[C@H]1O [EU-A600, Dmt-Tic-Phe-Lys(C1-glucuronyl)-Aib-NH2] (H-[Dmt][Tic]FK(βGlcA(1-OMe))[Aib]-NH2) | – | Pure MOP Ag; pure DOP antag | – |
| CO[C@@H]1O[C@H](C(=O)NCCCC[C@H](NC(=O)[C@H](Cc2ccccc2)NC(=O)[C@@H]2Cc3ccccc3CN2C(=O)[C@@H](N)Cc2c(C)cc(O)cc2C)C(=O)NCc2ccccc2)[C@@H](O)[C@H](O)[C@H]1O [EU-A620, Dmt-Tic-Phe-Lys(C1-glucuronyl)-NHCH2Ph] (H-[Dmt][Tic]FK(βGlcA(1-OMe))-NHBn) | – | Pure MOP Ag; pure DOP antag | – |
| CO[C@@H]1O[C@H](C(=O)NCCCC[C@@H](NC(=O)[C@H](Cc2ccccc2)NC(=O)[C@@H]2Cc3ccccc3CN2C(=O)[C@@H](N)Cc2c(C)cc(O)cc2C)C(=O)NCc2ccccc2)[C@@H](O)[C@H](O)[C@H]1O [EU-A639, Dmt-Tic-Phe-D-Lys(C1-glucuronyl)-NHCH2Ph] (H-[Dmt][Tic]F[dK](βGlcA(1-OMe))-NHBn; N-terminus assumed) | – | Pure MOP Ag; pure DOP antag | – |
| CCCCCCCCO[C@@H]1O[C@H](CO)[C@@H](O[C@H]2O[C@H](CO)[C@@H](O)[C@H](O)[C@H]2O)[C@H](O)[C@H]1O [Octyl maltoside] | 19.5 | – | – |
| CC[C@H](C)[C@H](NC(=O)[C@H](CCC(=O)O)NC(=O)[C@H](CO)NC(=O)[C@@H](NC(=O)[C@@H](N)CO)C(C)C)C(=O)N[C@@H](CCC(N)=O)C(=O)N[C@@H](CC(C)C)C(=O)N[C@@H](CCSC)C(=O)N[C@@H](Cc1cnc[nH]1)C(=O)N[C@@H](CC(N)=O)C(=O)N[C@@H](CC(C)C)C(=O)NCC(=O)N[C@@H](CCCCN)C(=O)N[C@@H](Cc1cnc[nH]1)C(=O)N[C@@H](CC(C)C)C(=O)N[C@@H](CC(N)=O)C(=O)N[C@@H](CO)C(=O)N[C@@H](CCSC)C(=O)N[C@@H](CCC(=O)O)C(=O)N[C@@H](CCCN=C(N)N)C(=O)N[C@H](C(=O)N[C@@H](CCC(=O)O)C(=O)N[C@@H](Cc1c[nH]c2ccccc12)C(=O)N[C@@H](CC(C)C)C(=O)N[C@@H](CCCN=C(N)N)C(=O)N[C@@H](CCCCN)C(=O)N[C@@H](CCCCN)C(=O)N[C@@H](CC(C)C)C(=O)N[C@@H](CCC(N)=O)C(=O)N[C@@H](CC(=O)O)C(=O)N[C@H](C(=O)N[C@@H](Cc1cnc[nH]1)C(=O)N[C@@H](CC(N)=O)C(=O)N[C@@H](Cc1ccccc1)C(=O)O)C(C)C)C(C)C [PTH, reference compound] | – | – | blood calcium levels versus control (saline/vehicle) ([2]; rat, sc): No groups were statistically significantly different from control; blood PO4 levels, 80 mcg groups ([2]; rat, single sc injection): transient but not statistically significant decrease |
| Dmt-Tic-Phe-D-Lys(C1-glucuronyl)-Aib-NH2 [EU-A615] | – | Pure MOP Ag; pure DOP antag | – |
| Dmt-Tic-Phe-Phe-Lys(C12-glucuronyl)-NH2 [EU-A190] | – | Pure MOP Ag; pure DOP antag | – |
| Sucrose dodecanoate | 0.3 | – | – |
